The values below are quoted from earlier work in patent US20240252447A1 (Ovid Therapeutics Inc., priority 2019, published 2024).

Data set [1] deals with sleep onset and sleep maintenance. Conditions: three-month efficacy study, insomnia.
For data set [2] the following is noted: patients with a history of drug abuse.

Molecules are shown by their SMILES.

In the case of `Oc1noc2c1CCNC2` [Gaboxadol, 4,5,6,7-tetrahydroisoxazolo [5,4-c]pyridine-3-ol], the “effects in sleep onset and sleep maintenance” value in data set [1] is “failed to show significant effects in sleep onset and sleep maintenance”. The “time to peak concentration” value (conventional pharmaceutical formulations such as tablets and capsules) was at most 30 min. Besides, for the setting “plasma half-life”, the “half-life (t1/2)” value is 1.5 to 2 h. Besides, the psychiatric adverse events entry in data set [2] is reported as “steep increase in psychiatric adverse events”.
